# Key:
# rat [1] = details: Multigenerational reproductive toxicity study, sprague dawley, Oral, Feed, dose end: 2 generation
# dog [2] = details: Subchronic oral toxicity in nonrodent, beagle, Feed, dose end: 90 day, group: systemic
# mouse [3] = details: Subchronic oral toxicity in rodents, cd1, Feed, dose end: 90 day
# rat [4] = details: Subchronic oral toxicity in rodents, sprague dawley, Feed, dose end: 13 week, group: systemic, systemic / in life observation / body weight / body weight + systemic / in life observation / body weight / body weight gain + systemic / in…
# rat [5] = details: Prenatal developmental toxicity study, sprague dawley, Oral, Gavage/Intubation, dose end: 15 GD
# dog [6] = details: Subchronic oral toxicity in nonrodent, beagle, Feed, dose end: 28 day, group: systemic
# rat [7] = details: Subchronic oral toxicity in rodents, sprague dawley, Feed, dose end: 13 week, group: systemic
# rat [8] = details: Combined chronic toxicity/carcinogenicity, other, Oral, Feed, dose end: 24 month, group: systemic
# mouse [9] = details: Carcinogenicity, cd1, Oral, Feed, dose end: 78 week, group: systemic
# dog [10] = details: Chronic toxicity, beagle, Oral, Feed, dose end: 52 week, group: systemic
# rat [11] = details: Subchronic oral toxicity in rodents, sprague dawley, Feed, dose end: 90 day, group: systemic
# [12] = group: offspring, developmental / developmental landmark / preputial separation / preputial separation + systemic / in life observation / body weight / litter…
# [13] = group: parental, systemic / in life observation / body weight / body weight + systemic / in life observation / body weight / body weight gain + systemic / in…
# [14] = group: reproductive, reproductive / offspring survival early / litter size / litter size
# [15] = systemic / in life observation / body weight / body weight gain
# [16] = systemic / in life observation / body weight / body weight gain + systemic / in life observation / body weight / body weight + systemic / in…
# [17] = group: cholinesterase, cholinesterase / cholinesterase / cholinesterase / cholinesterase (che)
# [18] = group: systemic, systemic / clinical chemistry / glucose / glucose + systemic / in life observation / body weight / body weight + systemic / in life …
# [19] = group: developmental, developmental / developmental malformation / bone / short
# [20] = group: maternal, systemic / in life observation / body weight / body weight + systemic / in life observation / body weight / body weight gain + systemic / in…
# [21] = systemic / in life observation / body weight / body weight gain + systemic / in life observation / food consumption / food consumption + …
# [22] = systemic / pathology microscopic / kidney / inclusion body intranuclear
# [23] = systemic / pathology microscopic / kidney / inclusion body intranuclear + systemic / in life observation / body weight / body weight + …
# [24] = systemic / in life observation / clinical signs / respiration (rales)
# [25] = systemic / in life observation / body weight / body weight + systemic / in life observation / body weight / body weight gain + systemic / …
# [26] = systemic / pathology microscopic / bone marrow / hyperplasia
# [27] = systemic / in life observation / body weight / body weight + systemic / in life observation / body weight / body weight gain + systemic / in…
# [28] = systemic / pathology microscopic / spleen / pigmentation
# [29] = systemic / pathology microscopic / spleen / pigmentation + systemic / in life observation / body weight / body weight + systemic / in life …
structure (smiles),measurement,setting,value
CC(=NC#N)N(C)Cc1ccc(Cl)nc1 [Acetamiprid],LEL,"rat [1]; group: offspring, developmental / developmental landmark / preputial separation / preputial separation",17.9 mg/kg/day
same,LOAEL,rat [1]; [12],51 mg/kg/day
same,NEL,rat [1]; [12],6.5 mg/kg/day
same,NOAEL,rat [1]; [12],17.9 mg/kg/day
same,LOAEL,rat [1]; [13],51 mg/kg/day
same,NEL,rat [1]; [13],6.5 mg/kg/day
same,NOAEL,rat [1]; [13],17.9 mg/kg/day
same,LEL,"rat [1]; group: parental, systemic / in life observation / body weight / body weight gain",17.9 mg/kg/day
same,LEL,rat [1]; [14],51 mg/kg/day
same,LOAEL,rat [1]; [14],51 mg/kg/day
same,NEL,rat [1]; [14],17.9 mg/kg/day
same,NOAEL,rat [1]; [14],17.9 mg/kg/day
same,LOAEL,dog [2]; [15],32 mg/kg/day
same,NEL,dog [2]; [16],14 mg/kg/day
same,NOAEL,dog [2]; [16],14 mg/kg/day
same,LEL,dog [2]; systemic / in life observation / body weight / body weight gain + systemic / in life observation / food consumption / food consumption,32 mg/kg/day
same,LEL,mouse [3]; [17],430 mg/kg/day
same,LOAEL,mouse [3]; [17],> 430 mg/kg/day
same,NEL,mouse [3]; [17],211 mg/kg/day
same,NOAEL,mouse [3]; [17],≥ 430 mg/kg/day
same,LEL,mouse [3]; [18],211 mg/kg/day
same,LOAEL,mouse [3]; [18],211 mg/kg/day
same,NEL,mouse [3]; [18],106 mg/kg/day
same,NOAEL,mouse [3]; [18],106 mg/kg/day
same,LEL,rat [4],50.8 mg/kg/day
same,LOAEL,rat [4],50.8 mg/kg/day
same,NEL,rat [4],12.4 mg/kg/day
same,NOAEL,rat [4],12.4 mg/kg/day
same,LEL,rat [5]; [19],50 mg/kg/day
same,LOAEL,rat [5]; [19],50 mg/kg/day
same,NEL,rat [5]; [19],16 mg/kg/day
same,NOAEL,rat [5]; [19],16 mg/kg/day
same,LEL,rat [5]; [20],50 mg/kg/day
same,LOAEL,rat [5]; [20],50 mg/kg/day
same,NEL,rat [5]; [20],16 mg/kg/day
same,NOAEL,rat [5]; [20],16 mg/kg/day
same,LEL,dog [6]; [15],28 mg/kg/day
same,LOAEL,dog [6]; [15],28 mg/kg/day
same,NEL,dog [6]; [21],16.7 mg/kg/day
same,NOAEL,dog [6]; [21],16.7 mg/kg/day
same,LEL,rat [7]; [22],250 mg/kg/day
same,LOAEL,rat [7]; [22],250 mg/kg/day
same,NEL,rat [7]; [23],48.9 mg/kg/day
same,NOAEL,rat [7]; [23],48.9 mg/kg/day
same,LEL,rat [8]; [24],7.1 mg/kg/day
same,NEL,rat [8]; [24],< 7.1 mg/kg/day
same,LOAEL,rat [8]; systemic / pathology microscopic / liver / vacuolization,17.5 mg/kg/day
same,NOAEL,rat [8]; systemic / pathology microscopic / liver / vacuolization + systemic / in life observation / body weight / body weight + systemic / in life …,7.1 mg/kg/day
same,LOAEL,mouse [9]; [25],65.6 mg/kg/day
same,NOAEL,mouse [9]; [25],20.3 mg/kg/day
same,LEL,mouse [9]; [26],20.3 mg/kg/day
same,NEL,mouse [9]; [26],< 20.3 mg/kg/day
same,LOAEL,dog [10]; systemic / in life observation / body weight / body weight + systemic / in life observation / body weight / body weight gain,55 mg/kg/day
same,LEL,dog [10]; [27],55 mg/kg/day
same,NEL,dog [10]; [27],20 mg/kg/day
same,NOAEL,dog [10]; [27],20 mg/kg/day
same,LEL,rat [11]; [28],112 mg/kg/day
same,LOAEL,rat [11]; [28],112 mg/kg/day
same,NEL,rat [11]; [29],36.5 mg/kg/day
same,NOAEL,rat [11]; [29],36.5 mg/kg/day

# Source: EPA's ToxRefDB 2
